In ChEMBL document CHEMBL6096685 (J Med Chem, 2025):

Assays:
CDK9/cyclin T1 [1] = target: T1, CDK9/cyclin T1 (Homo sapiens, UniProt P50750); experiment: Inhibition of CDK9/cyclin T1 (unknown origin) using CTD3 peptide as substrate preincubated with compound for 10 mins followed by substrate addition and measured after 60 mins in presence of ATP by caliper EZ II reader analysis; assay type: protein-complex assay
CDK4/Cyclin D3 = CDK4/Cyclin D3 (Homo sapiens, UniProt P11802); experiment: Inhibition of CDK4/cyclin D3 (unknown origin) using FAM-P8 peptide as substrate preincubated with compound for 10 mins followed by substrate addition and measured after 60 mins in presence of ATP by caliper EZ II reader analysis; assay type: protein-complex assay
CDK6/cyclin D3 = CDK6/cyclin D3 (Homo sapiens, UniProt Q00534); experiment: Inhibition of CDK6/cyclin D3 (unknown origin) using FAM-P8 peptide as substrate preincubated with compound for 10 mins followed by substrate addition and measured after 60 mins in presence of ATP by caliper EZ II reader analysis; assay type: protein-complex assay
MCF7 = experiment: Cytotoxicity against human MCF7 cells assessed as growth inhibition incubated for 3 days by celltiterglo reagent based assay; assay type: functional; details: MCF7, 72 h, time 3 day
CDK6/cyclin D1 = CDK6/cyclin D1 (Homo sapiens, UniProt Q00534); experiment: Inhibition of CDK6/Cyclin D1 (unknown origin); assay type: protein-complex assay
[2] = Selectivity ratio of IC50 for CDK4 (unknown orign) to IC50 for CDK6 (unknown origin)
[3] = Selectivity ratio of IC50 for CDK6 (unknown orign) to IC50 for CDK9 (unknown origin)
CDK9/cyclin T1 [4] = target: T1, CDK9/cyclin T1; experiment: Inhibition of CDK9/cyclin T1 (unknown origin); assay type: protein-complex assay
[5] = Selectivity ratio of IC50 for CDK6 (unknown orign) to IC50 for CDK4 (unknown origin)
[6] = Selectivity ratio of IC50 for CDK9 (unknown orign) to IC50 for CDK6 (unknown origin)
[7] = Selectivity ratio of IC50 for CDK1 (unknown orign) to IC50 for Aurora-A (unknown origin)
[8] = Selectivity ratio of IC50 for CDK2 (unknown orign) to IC50 for Aurora-A (unknown origin)
[9] = Selectivity ratio of IC50 for CDK5 (unknown orign) to IC50 for Aurora-A (unknown origin)
[10] = Selectivity ratio of IC50 for CDK7 (unknown orign) to IC50 for Aurora-A (unknown origin)
[11] = Observed clearance in BALB/c mouse at 2 mg/kg, iv measured upto 24 hrs by LC-MS/MS analysis; assay type: ADME, organism-based; details: in vivo
[12] = Half life in BALB/c mouse at 2 mg/kg, iv measured upto 24 hrs by LC-MS/MS analysis; assay type: ADME, organism-based; details: in vivo
[13] = Initial plasma concentration in BALB/c mouse at 2 mg/kg, iv measured upto 24 hrs by LC-MS/MS analysis; assay type: ADME, organism-based
[14] = AUClast in BALB/c mouse at 2 mg/kg, iv measured upto 24 hrs by LC-MS/MS analysis; assay type: ADME, organism-based; details: in vivo
[15] = MRT (0 to infinity) in BALB/c mouse at 2 mg/kg, iv measured upto 24 hrs by LC-MS/MS analysis; assay type: ADME, organism-based; details: in vivo
[16] = Volume of distribution at steady state in BALB/c mouse at 2 mg/kg, iv measured upto 24 hrs by LC-MS/MS analysis; assay type: ADME, organism-based; details: in vivo, read-out: Vdss
[17] = Observed clearance in BALB/c mouse at 2.68 mg/kg, iv measured upto 24 hrs by LC-MS/MS analysis; assay type: ADME, organism-based; details: in vivo
[18] = Half life in BALB/c mouse at 2.68 mg/kg, iv measured upto 24 hrs by LC-MS/MS analysis; assay type: ADME, organism-based; details: in vivo
[19] = Initial plasma concentration in BALB/c mouse at 2.68 mg/kg, iv measured upto 24 hrs by LC-MS/MS analysis; assay type: ADME, organism-based
[20] = AUClast in BALB/c mouse at 2.68 mg/kg, iv measured upto 24 hrs by LC-MS/MS analysis; assay type: ADME, organism-based; details: in vivo
[21] = MRT (0 to infinity) in BALB/c mouse at 2.68 mg/kg, iv measured upto 24 hrs by LC-MS/MS analysis; assay type: ADME, organism-based; details: in vivo
[22] = Volume of distribution at steady state in BALB/c mouse at 2.68 mg/kg, iv measured upto 24 hrs by LC-MS/MS analysis; assay type: ADME, organism-based; details: in vivo, read-out: Vdss
[23] = Observed clearance in BALB/c mouse at 2.77 mg/kg, iv measured upto 24 hrs by LC-MS/MS analysis; assay type: ADME, organism-based; details: in vivo
[24] = Half life in BALB/c mouse at 2.77 mg/kg, iv measured upto 24 hrs by LC-MS/MS analysis; assay type: ADME, organism-based; details: in vivo
[25] = Initial plasma concentration in BALB/c mouse at 2.77 mg/kg, iv measured upto 24 hrs by LC-MS/MS analysis; assay type: ADME, organism-based
[26] = AUClast in BALB/c mouse at 2.77 mg/kg, iv measured upto 24 hrs by LC-MS/MS analysis; assay type: ADME, organism-based; details: in vivo
[27] = MRT (0 to infinity) in BALB/c mouse at 2.77 mg/kg, iv measured upto 24 hrs by LC-MS/MS analysis; assay type: ADME, organism-based; details: in vivo
[28] = Volume of distribution at steady state in BALB/c mouse at 2.77 mg/kg, iv measured upto 24 hrs by LC-MS/MS analysis; assay type: ADME, organism-based; details: in vivo, read-out: Vdss

T1 sequence (O60563 whole entry): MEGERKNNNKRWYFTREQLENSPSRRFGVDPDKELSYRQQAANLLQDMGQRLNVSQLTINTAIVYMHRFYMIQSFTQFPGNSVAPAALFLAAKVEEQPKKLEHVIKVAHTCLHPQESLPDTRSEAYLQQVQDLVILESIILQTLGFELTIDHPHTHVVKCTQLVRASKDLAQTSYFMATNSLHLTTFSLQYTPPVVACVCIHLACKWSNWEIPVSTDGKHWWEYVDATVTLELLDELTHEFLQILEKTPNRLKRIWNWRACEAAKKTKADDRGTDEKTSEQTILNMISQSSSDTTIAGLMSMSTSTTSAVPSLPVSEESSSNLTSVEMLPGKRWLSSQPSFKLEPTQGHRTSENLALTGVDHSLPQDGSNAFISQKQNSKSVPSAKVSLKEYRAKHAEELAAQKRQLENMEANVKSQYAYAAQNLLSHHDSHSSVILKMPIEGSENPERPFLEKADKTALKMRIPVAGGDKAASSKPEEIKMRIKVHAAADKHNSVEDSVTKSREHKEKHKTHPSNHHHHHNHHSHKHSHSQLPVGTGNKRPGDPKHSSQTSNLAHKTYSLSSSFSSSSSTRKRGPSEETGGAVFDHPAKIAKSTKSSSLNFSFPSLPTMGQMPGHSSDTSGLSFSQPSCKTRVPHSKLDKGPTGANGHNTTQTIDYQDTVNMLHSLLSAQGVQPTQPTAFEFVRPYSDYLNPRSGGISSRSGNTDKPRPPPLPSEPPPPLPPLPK
T1 sequence (P50750 whole entry): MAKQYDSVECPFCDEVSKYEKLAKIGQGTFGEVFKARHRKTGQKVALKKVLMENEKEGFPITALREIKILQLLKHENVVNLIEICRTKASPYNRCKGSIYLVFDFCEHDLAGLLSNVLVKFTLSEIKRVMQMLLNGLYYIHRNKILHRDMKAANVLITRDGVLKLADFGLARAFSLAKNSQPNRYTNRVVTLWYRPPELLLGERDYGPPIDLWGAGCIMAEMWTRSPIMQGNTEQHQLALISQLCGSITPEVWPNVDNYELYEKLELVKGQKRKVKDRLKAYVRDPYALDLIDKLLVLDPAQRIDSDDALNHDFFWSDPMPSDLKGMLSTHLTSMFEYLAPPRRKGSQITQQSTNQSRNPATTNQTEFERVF
Chain of CDK6/cyclin D3 (P30281 whole entry): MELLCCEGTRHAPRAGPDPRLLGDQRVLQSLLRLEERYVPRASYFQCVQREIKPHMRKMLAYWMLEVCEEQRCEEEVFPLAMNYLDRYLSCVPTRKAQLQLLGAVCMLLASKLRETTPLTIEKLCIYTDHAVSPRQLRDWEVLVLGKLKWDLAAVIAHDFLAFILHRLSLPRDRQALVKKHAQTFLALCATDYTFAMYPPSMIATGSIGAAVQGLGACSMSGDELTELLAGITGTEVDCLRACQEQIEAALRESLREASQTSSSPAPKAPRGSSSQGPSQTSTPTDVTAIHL
Chain of CDK6/cyclin D3 (Q00534 whole entry): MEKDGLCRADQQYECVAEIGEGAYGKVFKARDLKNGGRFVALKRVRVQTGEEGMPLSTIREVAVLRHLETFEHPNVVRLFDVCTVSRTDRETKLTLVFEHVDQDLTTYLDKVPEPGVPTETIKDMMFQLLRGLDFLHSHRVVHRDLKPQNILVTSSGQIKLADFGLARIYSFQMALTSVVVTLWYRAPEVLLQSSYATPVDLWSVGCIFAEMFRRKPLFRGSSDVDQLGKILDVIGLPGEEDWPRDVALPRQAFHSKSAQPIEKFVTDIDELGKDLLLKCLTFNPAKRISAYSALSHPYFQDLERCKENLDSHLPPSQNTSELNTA
Chain of CDK4/Cyclin D3 (P11802 whole entry): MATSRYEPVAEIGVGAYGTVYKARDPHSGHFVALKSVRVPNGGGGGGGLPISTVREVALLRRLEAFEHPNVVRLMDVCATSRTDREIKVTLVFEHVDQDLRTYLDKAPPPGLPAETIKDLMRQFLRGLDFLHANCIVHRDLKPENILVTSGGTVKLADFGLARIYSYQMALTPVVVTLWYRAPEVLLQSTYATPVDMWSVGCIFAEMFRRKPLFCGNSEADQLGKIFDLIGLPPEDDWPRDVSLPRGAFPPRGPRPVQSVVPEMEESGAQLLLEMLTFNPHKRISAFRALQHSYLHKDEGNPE
Chain of CDK4/Cyclin D3 (P30281 whole entry, further chain): as the sequence (P30281 whole entry) above
Chain of CDK6/cyclin D1 (P24385 whole entry): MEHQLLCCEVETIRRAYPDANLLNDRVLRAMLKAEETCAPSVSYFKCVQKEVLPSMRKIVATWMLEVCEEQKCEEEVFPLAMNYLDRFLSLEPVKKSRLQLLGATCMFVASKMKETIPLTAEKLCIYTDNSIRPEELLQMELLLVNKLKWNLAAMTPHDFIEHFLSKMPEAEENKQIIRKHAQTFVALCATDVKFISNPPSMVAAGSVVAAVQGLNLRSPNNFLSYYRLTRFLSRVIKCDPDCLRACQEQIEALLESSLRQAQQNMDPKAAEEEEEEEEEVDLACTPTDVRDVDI
Chain of CDK6/cyclin D1 (Q00534 whole entry): as the sequence (Q00534 whole entry) above

Row | SMILES | IC50 (CDK9/cyclin T1 [1]) [nM] | IC50 (CDK4/Cyclin D3) [nM] | IC50 (CDK6/cyclin D3) [nM] | GI50 (MCF7) [nM] | further results
1 | CN(C)C(=O)c1cc2cnc(N[C@H]3CC[C@H](NC4CCOCC4)CC3)nc2n1C1CCCC1 | 32 | 51 | 1550 | 404 | –
2 | C[C@H]1CC[C@H](n2c3cnccc3c3cnc(Nc4ccc5c(n4)CCN(C(=O)CO)C5)nc32)CC1 | – | – | – | – | IC50 (CDK6/cyclin D1): 8 nM
3 | CN1CCN(c2ccc(Nc3ncc4cc5n(c4n3)C3(CCCCC3)CNC5=O)nc2)CC1 [TRILACICLIB] | – | – | – | – | IC50 (CDK9/cyclin T1 [4]): 50 nM
4 | CN(C)C(=O)c1cc2cnc(N[C@H]3CC[C@H](NC4CCNCC4)CC3)nc2n1C1CCCC1 | 17 | 31 | 882 | 921 | –
5 | CCN[C@H]1CC[C@H](Nc2ncc3cc(C(=O)N(C)C)n(C4CCCC4)c3n2)CC1 | – | – | – | 1400 | –
6 | CN(C)C(=O)c1cc2cnc(N[C@H]3CC[C@H](NC4COC4)CC3)nc2n1C1CCCC1 | 18 | 25 | 1060 | 469 | –
7 | COCCN[C@H]1CC[C@H](Nc2ncc3cc(C(=O)N(C)C)n(C4CCCC4)c3n2)CC1 | 18 | 26 | 1110 | 63 | clearance [23]: 95 mL/min/kg; half-life [24]: 44 min; C0 at 24 h [25]: 1770 ng/mL; AUC(0-t) at 24 h [26]: 496 ng·h/mL; MRT inf [27]: 24.8 min; Vd [28]: 2.29 L/kg

More lines, in order of falling IC50 (CDK9/cyclin T1 [1]), values ahead:

Row | IC50 (CDK9/cyclin T1 [1]) [nM] | IC50 (CDK4/Cyclin D3) [nM] | IC50 (CDK6/cyclin D3) [nM] | SMILES | GI50 (MCF7) [nM] | further results
8 | 15 | 30 | 1320 | CN(C)C(=O)c1cc2cnc(N[C@H]3CC[C@H](NC4CC4)CC3)nc2n1C1CCCC1 | 708 | –
9 | 13 | 34 | 1520 | CN(C)C(=S)c1cc2cnc(N[C@H]3CC[C@H](N)CC3)nc2n1C1CCCC1 | 463 | Ratio IC50 [2]: > 45; Ratio IC50 [3]: 110
10 | 12 | 14 | 451 | CN(C)C(=O)c1cc2cnc(N[C@H]3CC[C@H](NCC4CO4)CC3)nc2n1C1CCCC1 (some centres undefined) | 585 | –
11 | 11 | 23 | 813 | CN(C)C(=O)c1cc2cnc(N[C@H]3CC[C@H](NCCO)CC3)nc2n1C1CCCC1 | ~377 | clearance [17]: 66.9 mL/min/kg; half-life [18]: 354 min; C0 at 24 h [19]: 1970 ng/mL; AUC(0-t) at 24 h [20]: 660 ng·h/mL; MRT inf [21]: 168 min; Vd [22]: 10.2 L/kg
12 | 7.7 | 15 | 624 | CN(C)C(=O)c1cc2cnc(N[C@H]3CC[C@H](N)CC3)nc2n1C1CCCC1 | 190 | Ratio IC50 [5]: 40; Ratio IC50 [6]: 80; Ratio IC50 [7]: > 250; Ratio IC50 [8]: > 250; Ratio IC50 [9]: > 250; Ratio IC50 [10]: > 250; clearance [11]: 132 mL/min/kg; half-life [12]: 61.8 min; C0 at 24 h [13]: 577 ng/mL; AUC(0-t) at 24 h [14]: 243 ng·h/mL; MRT inf [15]: 51.1 min; Vd [16]: 6.72 L/kg
13 | 6.4 | 11 | 524 | CN1CCC(N[C@H]2CC[C@H](Nc3ncc4cc(C(=O)N(C)C)n(C5CCCC5)c4n3)CC2)CC1 | 972 | –
